Data: article PMC3288891 (2012)

Legend:
[1] = biological target: T1, P180C/E186C PTP1B (protein tyrosine phosphatase 1B) (Homo sapiens, UniProt P18031, E186C/P180C); assay: pNPP phosphatase assay with purified enzyme; assay type: biochemical
T1 sequence (P18031 1-435 P180C/E186C): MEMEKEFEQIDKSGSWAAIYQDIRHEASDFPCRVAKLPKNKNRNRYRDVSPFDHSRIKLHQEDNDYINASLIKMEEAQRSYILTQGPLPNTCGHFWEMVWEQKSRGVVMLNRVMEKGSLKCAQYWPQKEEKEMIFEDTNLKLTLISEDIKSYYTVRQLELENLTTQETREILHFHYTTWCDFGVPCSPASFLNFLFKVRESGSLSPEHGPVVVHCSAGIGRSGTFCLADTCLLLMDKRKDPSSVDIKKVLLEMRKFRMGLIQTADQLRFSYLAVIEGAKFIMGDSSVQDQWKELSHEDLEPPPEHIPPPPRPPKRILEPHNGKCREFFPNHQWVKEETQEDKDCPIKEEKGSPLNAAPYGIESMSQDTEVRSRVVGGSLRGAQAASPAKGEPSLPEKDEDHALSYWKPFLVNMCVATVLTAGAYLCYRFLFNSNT

[2] = biological target: P180C/P185C PTP1B (protein tyrosine phosphatase 1B) (Homo sapiens, UniProt P18031, P180C/P185C); assay: biochemical
[3] = biological target: T1, P180C/E186C PTP1B (protein tyrosine phosphatase 1B); assay: biochemical
[4] = biological target: wild-type PTP1B (protein tyrosine phosphatase 1B) (Homo sapiens, UniProt P18031); assay: biochemical
wild-type PTP1B (protein tyrosine phosphatase 1B), sequence (P18031 1-321 limits assumed): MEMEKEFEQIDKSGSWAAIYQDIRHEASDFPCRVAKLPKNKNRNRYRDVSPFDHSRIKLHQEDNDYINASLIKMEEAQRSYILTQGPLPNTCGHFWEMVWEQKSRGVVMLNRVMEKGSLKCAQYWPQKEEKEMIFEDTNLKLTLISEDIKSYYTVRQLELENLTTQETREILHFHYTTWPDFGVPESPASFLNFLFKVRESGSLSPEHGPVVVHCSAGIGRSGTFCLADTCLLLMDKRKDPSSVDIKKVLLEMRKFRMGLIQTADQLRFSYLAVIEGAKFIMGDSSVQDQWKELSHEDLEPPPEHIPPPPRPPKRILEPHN

P180C/P185C PTP1B (protein tyrosine phosphatase 1B), sequence (P18031 1-321 P180C/P185C limits assumed): as the sequence (P18031 1-321 limits assumed) above, with P180C, P185C counted along it

Row | Km [2] | Km [3] | Km [4] | Structure (SMILES) | IC50 [1]
1 | – | – | – | O=C1OC2(c3ccccc31)c1ccc(O)c([As]3SCCS3)c1Oc1c2ccc(O)c1[As]1SCCS1 [FlAsH-EDT2, 4′,5′-bis(1,3,2-dithioarsolan-2-yl)fluorescein] | ~130 nM
2 | 2.03 ± 0.25 mM | 980 ± 90 µM | 2.29 ± 0.21 mM | O=[N+]([O-])c1ccc(OP(=O)(O)O)cc1 [para-nitrophenyl phosphate] | –
